A short description of data set [1]: PK after sub-chronic s.c. treatment (7 days). The following applies: for plasma concentration: unit not given. It counts as in vivo, male Sprague-Dawley rats. On the procedure: (§1) To study PK in healthy animals, male Sprague-Dawley rats (Harlan, Correzzana, Italy) were housed up to three per cage with free access to water and standard chow (pellets 12 mm, global diet 2018 certificate, Mucedola, Srl, Settimo Milanese, Italy), and submitted to a 12-h light/dark cycle. Animals were administered i.v. 10 mg/kg of (OEG2)2-IP4 in saline solution i.v. (30 s bolus, 5 mL/kg) and s.c. (5 mL/kg), respectively, in three animals per route and treatment. […] Plasma calcium concentration was determined in pre-dose samples and in t = 30 min samples of both acute and chronic treatments using the calcium colorimetric assay. Blood samples of 100 µL were drawn at several time points from the caudal vein, centrifuged at (3000 × g, 4 °C, 10 min) and stored at −80 °C until analysis by liquid chromatography–tandem mass spectrometry (LC-MS/MS).

The nature of data set [2]: Plasma calcium after s.c. administration in healthy rats. In kind it is in vivo, rat. Conditions: individual rats. The protocol: One potential side effect of inositol phosphate-based drugs is toxicity due to chelation of ionized serum calcium. […] At 100 µM (OEG2)2-IP4, 96 ± 2% of control serum-ionized calcium was measured.
as §1

Data set [3] in a line: Serum PTH and FGF-23 in adenine model. It counts as in vivo, rat. The source says:
However, clearly the bone mineralization may be affected by the mode of action. The effects of the compound on the bone is not sufficiently investigated, and this limitation not sufficiently discussed, since similar to the adenin model, CKD patients may be the prime patient population for treatment. The bone structure should be documented by µCT. Is there an effect of the compound on the mechanical properties? Am I missing the effects of the compound on bone in healthy animals – this would seem decisive?
In response to the reviewer’s comment we investigated the (3D) bone structure of vehicle and (OEG2)2-IP4 treated CKD animals by µCT analysis and compared the results to that of bone samples from control (non-CKD) male Wistar rats of the same age. […]
because of (1) ethical considerations (aiming to limit the number of animals), (2) the primary end-point of the study was to evaluate the effect of (OEG2)2-IP4 on the development of vascular calcification, which was of no relevance for control (non-CKD) animals as they do not develop vascular calcification. […]
In response to the reviewer’s comment we measured concentrations of PTH and FGF-23 in the serum of CKD animals of vehicle and (OEG2)2-IP4 groups both at baseline and at sacrifice. […]

The target in data set [4] is T1, Bradykinin B2 (Homo sapiens, UniProt P30411).
T1 construct: purchased Eurofins Panlabs Discovery Services Taiwan, Ltd
The data set can be described thus: Off-target 212320. It counts as binding. On the procedure:
(§2) The potential off-target activity of 10 µM (OEG2)2-IP4 was assessed against a panel of 87 enzymes, receptors, or ion channels that are used in standard safety pharmacology screens.
(§3) 3.2. Off-target screening assay
(§4) The experiments were conducted by a contract research organization (Eurofins Panlabs Discovery Services Taiwan, Ltd.) and details on the respective assays can be retrieved via the catalog number provided in Supplementary Table 11 from the company’s webpage
(§5) (https://www.eurofinsdiscoveryservices.com/). […]
(§6) At sacrifice the left tibia of animals of the rat model with dietary adenine/high-phosphate-induced uremia and VC was collected, fixed with 70% v/v EtOH and embedded in methyl methacrylate. The trabecular bone compartment is known to be the most metabolic active i.e. actively re-structured bone compartment in CKD. Therefore, histomorphometric and micro-computed tomography (µCT) analysis of bone was performed on the trabecular compartment. Tibial sections were Goldner-stained for histomorphometric analysis of the proximal metaphysis using the AxioVision Release 4.5 software, as […]
(§7) described previously5. […]

The target in data set [5] is T2, Chemokine CXCR2 (IL-8RB) (Homo sapiens, UniProt P25025).
T2 construct: purchased Eurofins Panlabs Discovery Services Taiwan, Ltd
The data set can be described thus: Off-target 244500. In kind it is binding. On the procedure: as §2, §3, §4, §5, §6, §7

The target of data set [6] is T3, Endothelin ETA (Homo sapiens, UniProt P25101).
T3 construct: purchased Eurofins Panlabs Discovery Services Taiwan, Ltd
The data set can be described thus: Off-target 224010. It counts as binding. On the procedure: as §2, §3, §4, §5, §6, §7

The test system of data set [7] is GABAA, Flunitrazepam, Central. The experiment in a line: Off-target 226600. It counts as binding, Rat. Conditions: 10 µM. The protocol: as §2, §3
(§8) The experiments were conducted by a contract research organization (Eurofins Panlabs Discovery
(§9) Services Taiwan, Ltd.) and details on the respective assays can be retrieved via the catalog number
(§10) provided in Supplementary Table 11 from the company’s webpage
as §5

In data set [8] the target is T4, Neuropeptide Y Y1 (Homo sapiens, UniProt P25929).
T4 construct: purchased Eurofins Panlabs Discovery Services Taiwan, Ltd
The experiment in a line: Off-target 257010. It counts as binding. On the procedure: as §2, §3, §8, §9, §10, §5

For data set [9], the target named is T5, Serotonin (5-Hydroxytryptamine) 5-HT1A (Homo sapiens, UniProt P08908).
T5 construct: purchased Eurofins Panlabs Discovery Services Taiwan, Ltd
The experiment in a line: Off-target 271110. In kind it is binding. On the procedure:
as §2, §3, §8, §9, §10, §5

Data set [10] concerns Sodium Channel, Site 2. The experiment in a line: Off-target 279510. In kind it is binding, Rat. The following applies: 10 µM. On the procedure:
as §2, §3, §8, §9, §10, §5

On the set-up of data set [11]: method as in PMID 30280390. Conditions: after a 4-h i.v. infusion, cited from earlier work.

Consider two compounds from article PMC7002685, “Inhibition of vascular calcification by inositol phosphates derivatized with ethylene glycol oligomers” (Nature Communications, 2020).

Broadly, the inhibition is the drop in the measured response relative to a control, in per cent. What is called % Inhibition is the change of the read-out against control, counted positive when it falls.

Values joined by “and” are separate entries in the source; they are usually repeats but may differ in a detail not shown here. Identical values can stand only once. Like-named read-outs stand apart in the source and are kept apart here.

T3 sequence (P25101 21-427): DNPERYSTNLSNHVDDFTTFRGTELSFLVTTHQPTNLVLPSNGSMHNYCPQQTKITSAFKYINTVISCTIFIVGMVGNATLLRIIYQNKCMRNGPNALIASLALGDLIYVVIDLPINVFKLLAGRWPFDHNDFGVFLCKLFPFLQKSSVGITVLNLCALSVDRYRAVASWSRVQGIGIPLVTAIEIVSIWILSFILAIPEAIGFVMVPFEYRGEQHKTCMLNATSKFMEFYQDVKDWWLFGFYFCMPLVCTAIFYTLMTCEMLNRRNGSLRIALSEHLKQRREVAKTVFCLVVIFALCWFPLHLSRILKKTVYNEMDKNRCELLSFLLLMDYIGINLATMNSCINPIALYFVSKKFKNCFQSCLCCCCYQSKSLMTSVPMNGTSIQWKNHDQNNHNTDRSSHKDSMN
T5 sequence (P08908 whole entry): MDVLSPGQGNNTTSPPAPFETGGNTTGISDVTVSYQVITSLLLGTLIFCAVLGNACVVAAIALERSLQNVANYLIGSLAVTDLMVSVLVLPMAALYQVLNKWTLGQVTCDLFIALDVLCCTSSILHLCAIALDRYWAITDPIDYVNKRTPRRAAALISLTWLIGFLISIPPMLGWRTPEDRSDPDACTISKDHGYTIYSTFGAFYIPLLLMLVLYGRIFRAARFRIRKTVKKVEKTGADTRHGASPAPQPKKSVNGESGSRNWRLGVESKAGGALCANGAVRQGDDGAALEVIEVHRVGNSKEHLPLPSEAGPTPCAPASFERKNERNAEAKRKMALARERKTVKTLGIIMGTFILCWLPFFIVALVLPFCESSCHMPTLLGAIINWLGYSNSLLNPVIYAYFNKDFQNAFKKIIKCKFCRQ
T1 sequence (P30411 whole entry): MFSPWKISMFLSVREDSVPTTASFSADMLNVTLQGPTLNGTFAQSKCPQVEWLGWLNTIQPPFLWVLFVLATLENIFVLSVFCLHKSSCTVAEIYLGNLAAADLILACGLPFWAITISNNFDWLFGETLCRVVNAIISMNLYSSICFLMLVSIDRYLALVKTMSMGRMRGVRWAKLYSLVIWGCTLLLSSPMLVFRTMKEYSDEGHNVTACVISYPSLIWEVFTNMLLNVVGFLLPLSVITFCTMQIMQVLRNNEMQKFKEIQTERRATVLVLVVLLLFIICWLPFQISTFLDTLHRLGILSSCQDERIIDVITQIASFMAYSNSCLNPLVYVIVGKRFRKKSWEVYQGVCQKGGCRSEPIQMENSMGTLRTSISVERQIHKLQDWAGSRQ
T2 sequence (P25025 whole entry): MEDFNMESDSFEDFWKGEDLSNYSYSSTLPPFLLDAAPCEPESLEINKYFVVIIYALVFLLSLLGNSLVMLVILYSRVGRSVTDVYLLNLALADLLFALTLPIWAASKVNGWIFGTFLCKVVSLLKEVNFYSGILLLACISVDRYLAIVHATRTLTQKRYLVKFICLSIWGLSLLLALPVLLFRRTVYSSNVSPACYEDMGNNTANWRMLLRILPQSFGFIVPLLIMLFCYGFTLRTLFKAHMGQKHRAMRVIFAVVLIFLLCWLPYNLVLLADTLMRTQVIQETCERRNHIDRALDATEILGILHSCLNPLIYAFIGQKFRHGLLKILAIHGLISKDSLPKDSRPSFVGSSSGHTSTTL
T4 sequence (P25929 whole entry): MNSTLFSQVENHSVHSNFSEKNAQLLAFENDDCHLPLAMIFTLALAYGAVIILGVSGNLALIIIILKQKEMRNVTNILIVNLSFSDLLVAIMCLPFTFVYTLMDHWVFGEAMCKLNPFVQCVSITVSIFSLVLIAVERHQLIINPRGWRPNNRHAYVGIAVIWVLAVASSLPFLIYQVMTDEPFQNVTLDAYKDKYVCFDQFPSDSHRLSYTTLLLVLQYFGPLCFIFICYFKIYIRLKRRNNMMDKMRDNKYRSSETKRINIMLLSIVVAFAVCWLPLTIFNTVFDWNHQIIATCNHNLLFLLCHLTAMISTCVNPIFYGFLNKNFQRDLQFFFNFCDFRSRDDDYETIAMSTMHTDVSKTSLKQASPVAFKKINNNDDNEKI

For `COCCOCCO[C@@H]1[C@@H](OP(=O)(O)O)[C@H](OCCOCCOC)[C@@H](OP(=O)(O)O)[C@@H](OP(=O)(O)O)[C@H]1OP(=O)(O)O` [(OEG2)2-IP4, 4,6-Di-O-(methoxy-diethyleneglycol)-myo-inositol-1,2,3,5-tetrakis(phosphate)], in data set [1] (50 mg/kg for 7 days), the “accumulation following repeated s.c. administration” value is “No significant accumulation”. The plasma concentration in [1] (50 mg/kg/day s.c. sub-chronic (7 days), time 0) was 0.18 and 0.24 and 0.25 and 0.16; in [1] (50 mg/kg/day s.c. sub-chronic, time 0.5) it was 82.39 and 90 and 95.45 and 69.57; in data set [1] (50 mg/kg/day s.c. sub-chronic, time 1) it was 64.18 and 72.74 and 67.54 and 66.21; in data set [1] (50 mg/kg/day s.c. sub-chronic, time 2) it was 31.83 and 38.97 and 22.86 and 35.06; in [1] (50 mg/kg/day s.c. sub-chronic, time 8), 0.78 and 0.86 and 0.76 and 0.85; in data set [1] (50 mg/kg/day s.c. sub-chronic, time 24), 0.07 and 0.13 and 0.08. The “plasma calcium (Figure 4k)” value in data set [2] (Acute, 30 min postdose) was 2.45 and 2.725 and 1.925 and 1.85; in data set [2] (Acute, Predose), 2.8 and 2.45 and 2.3 and 1.975; in [2] (Sub-chronic, 30 min postdose), 2.175 and 2.2 and 2.05 and 1.925; in [2] (Sub-chronic, Predose), 2.275 and 2.3 and 2.55 and 1.925. The “serum PTH levels” value in data set [3] (5, 15, 50 mg/kg) is given as “did not differ between treatment groups”. In addition, the “serum FGF-23 compared to vehicle” value in [3] (lowest (5 mg/kg) dose) is “significantly higher”. In addition, the inhibition at 10 µM was -17% in data set [4]; 6% in data set [5]; 8% in data set [6]; -9% in data set [8]; 11% in [9]. For the same compound, the “% Inhibition” value is given as -7% in data set [7] and -1% in [10].
With `O=P(O)(O)O[C@H]1[C@H](OP(=O)(O)O)[C@@H](OP(=O)(O)O)[C@H](OP(=O)(O)O)[C@@H](OP(=O)(O)O)[C@H]1OP(=O)(O)O` [IP6, myo-Inositol hexakisphosphate], the results for the “plasma half-life (t1/2)” value in data set [11] (healthy volunteers) and in [11] (hemodialyzed patients) were 54 min and 27 min, respectively.
